Source: US20100286093A1, “ANTI-INFLAMMATORY COMPOSITION CONTAINING DOCOSAHEXAENOYL LYSOPHOSPHATIDYLAMINE AS AN ACTIVE INGREDIENT” (The Industry & Academic Cooperation in Chungnam National …, priority 2009, published 2010)

Experiments:
[1] = tested on: zymosan A induced plasma leakage; test: Zymosan A induced plasma leakage in peritoneal fluid (Evans blue), intravenous injection; assay type: in vivo, mice
Protocol: To investigate inhibitory effect of docosahexaenoyl lysophosphatidylcholine on peritonitis induced by zymosan, the present inventors induced inflammation in abdominal cavity by injecting zymosan A (saccharomyces cerevisiae) (Sigma-Aldrich Corp, St. Louis, Mo., USA), and then administered lysophosphatidylcholine, followed by evaluation of anti-inflammatory effect. Particularly, SPF mice (6 weeks, male) were adapted for 12 hours and then raised in an animal laboratory at College of Pharmacy under 12/12 hour dark/light cycle. Then, the mice were used for intra-abdominal inflammatory response experiment. First, each experimental group was composed of 5˜10 mice, to which 10˜500 μg/kg of each lysophosphatidylcholine was injected through tail vein. The control group was injected with 50˜100 ul of saline. 30 minutes later, 0.5% Evans blue dye solution (0.2 ml) was injected through tail vein and then 100 ul of zymosan A (1 mg/ml) dissolved in saline was injected into abdominal cavity. 30 minutes after the administration, the mice were anesthetized lightly with ether or fluorine, followed by neck dissection. 4 ml of ice-cold PBS was injected into abdominal cavity and peritoneal fluid was recovered by using a plastic syringe, followed by centrifugation (3,000 rpm, 10 minutes). Supernatant was obtained from the centrifugation, with which exudation of Evans blue was measured by spectrophotometer at 620 nm to evaluate anti-inflammatory effect (Arita M, et al., Proc Natl Acad Sci USA. 2005 May 24; 102(21):7671-6; Takenaka M, et al., Biol Pharm Bull. 2005 July; 28(7):1291-3).
The present inventors measured time-dependent anti-inflammatory effect (inhibitory effect on zymosan A induced plasma leakage) of each lysophosphatidylcholine. Particularly, docosahexaenoyl lysophosphatidylcholine (50 μg/kg) was injected to mice through tail vein at different time intervals (15 minutes—120 minutes; […], 30 minutes, 60 minutes and 120 minutes before zymosan A administration). After administrating zymosan A ([…]) via intraperitoneal injection, Evans blue was treated, followed by measuring plasma leakage in peritoneal fluid.
Particularly, docosahexaenoyl lysophosphatidylcholine (50 μg/kg), docosahexaenoic acid (50 μg/kg) or 17-HPDHA lysophosphatidylcholine (17(S)-hydroperoxy-4,7,10,13,15,19-docosahexaenoyl lysophosphatidylcholine) were compared. Soybean LOX-1 (200 units/ml) was added in borax buffer (50 mM, pH 9.0) containing docosahexaenoyl lysophosphatidylcholine (20 uM), followed by reaction at 25° C. for 30 minutes, which was passed through C18 column (2×1 cm) and eluted with methanol (Huang L S, et al., J Agric Food Chem. 2008 Sep. 10; 56(17):7808-14)] (50 μg/kg) was treated to mice 30 minutes before zymosan A injection. 30 minutes later, plasma leakage in peritoneal fluid was measured.
The present inventors intravenously injected docosahexaenoyl lysophosphatidylethanolamine into mice at the concentration of 15˜150 μg/kg. 30 Min later, 100 ul of zymosan A(1 mg/ml) was treated thereto to induce inflammation in abdominal cavity. After administering 0.5% Evans blue, plasma leakage in peritoneal fluid was measured.

[2] = tested on: RAW 264.7 cells; test: LPS induced NO generation in RAW 264.7 cells (Griess reagent); assay type: cell-based
Source text: Macrophages are known to play an important role in inflammatory response and host defense. When macrophages are activated by lipopolysaccharide (LPS), a huge amount of NO (nitric oxide) is generated, which is mediated by inducible nitric oxide synthase (iNOS).
Based on that, the present inventors observed how unsaturated fatty acid containing lysophosphatidylcholine (lysoPC) affected the generation of NO, the inflammation mediator, induced by LPS in RAW 264.7 cells. Particularly, RAW 264.7 cells (5×10^4/well) were pre-cultured with each polyunsaturated lysophosphatidylcholine; linoleoyl lysophosphatidylcholine, arachidonoyl lysophosphatidylcholine and docosahexaenoyl lysophosphatidylcholine [prepared by the co-treatment with diacyl phosphatidylcholine (Avanti Polar Lipids, Alabaster, Ala., USA) and phospholipase A2 (PLA2, Sigma-Aldrich Corp, St. Louis, Mo., USA) (Croset, M. et al., Biochem. J. 2000, 345, 61-67; Adachi, J. et al., Kobe. J. Med. Sci. 2006, 52, 127-140)] (0˜60 uM) at 37° C. for 2 hours. Then, LPS (1 μg/ml) was added thereto, followed by culture for 20 hours under the same conditions as the above. […] Then, OD540 was measured to measure NO generation (Green L C, et al., Anal Biochem. 1982 October; 126(1):131-8).

[3] = tested on: zymosan A induced plasma leakage; test: Zymosan A induced plasma leakage in peritoneal fluid (Evans blue), intraperitoneal injection; assay type: in vivo, mice; details: i.p.
Protocol: The present inventors intraperitoneally injected docosahexaenoyl lysophosphatidylcholine or 17-HPDHA lysophosphatidylcholine (docosahexaenoyl lysophosphatidylcholine oxide) into mice at the concentration of 15˜150 μg/kg. The control group was injected with 50˜100 ul of saline. 2 Hours later, 0.5% Evans Blue dye solution (0.2 ml) was injected through tail vein, followed by intraperitoneal injection of 100 ul of zymosan A (1 mg/ml) dissolved in saline. 30 minutes later, the mice were slightly anesthetized with ether or fluorine, followed by neck dissection. 4 ml of ice-cold PBS was injected into abdominal cavity and peritoneal fluid was recovered by using a plastic syringe, followed by centrifugation (3,000 rpm, 10 minutes). Exudation of Evans blue was measured to evaluate anti-inflammatory effect.

docosahexaenoyl lysophosphatidylethanolamine
inhibitory effect on zymosan A induced plasma leakage ([1]; i.v., 50 μg/kg or higher, 30 min before zymosan A): significant inhibitory effect | inhibition of zymosan A induced plasma leakage, dose dependence ([1]; i.v., up to 150 μg/kg): inhibited zymosan A induced plasma leakage dose-dependently

arachidonoyl lysophosphatidylcholine [reference compound]
inhibition of NO generation induced by LPS ([2]; 60 uM): ≤ 20% | reduction of zymosan induced plasma leakage ([1]; 50 μg/kg i.v.): reduced plasma leakage significantly | reduction of zymosan induced plasma leakage ([1]; 150 μg/kg i.v.): more peculiar | reduction of zymosan induced plasma leakage ([1]; 500 μg/kg i.v., versus 150 μg/kg): this effect was not increased any more

CCCCC/C=C\C/C=C\CCCCCCCC(=O)OC[C@@H](O)COP(=O)([O-])OCC[N+](C)(C)C [linoleoyl lysophosphatidylcholine, reference compound]
inhibitory effect on NO generation induced by LPS ([2]; up to 60 uM): did not show any significant inhibitory effect | inhibition of zymosan induced plasma leakage, dose dependence ([1]; i.v., up to 500 μg/kg): did not show inhibitory effect

17(S)-hydroperoxy-4,7,10,13,15,19-docosahexaenoyl lysophosphatidylcholine [17-HPDHA lysophosphatidylcholine]
inhibitory effect on plasma leakage (metabolite comparison) ([1]; 50 μg/kg, 30 minutes before zymosan A injection, compared to docosahexaenoyl lysophosphatidylcholine): a greater inhibitory effect | inhibitory effect on zymosan induced plasma leakage ([3]; 15 μg/kg or higher, 2 hours before zymosan A): significant | effectiveness in comparison with docosahexaenoyl lysophosphatidylcholine ([3]; 15~150 μg/kg): somewhat more effective than docosahexaenoyl lysophosphatidylcholine | inhibition of zymosan induced plasma leakage, dose dependence ([3]; up to 150 μg/kg): dose-dependent
